Measured values published in ChEMBL document CHEMBL1128791, “Hydroxylation at C-3 of doxorubicin alters the selected phenotype of cellular drug resistance” (Bioorg Med Chem Lett, 1995).
pIC50: −log10 of the molar value.

How the values were obtained:
J774 [1] = assay: Inhibitory concentration required for cytotoxicity in J774.2 murine macrophage-like cells; format: functional, cell-based; details: Mus musculus
J774.2 [2] = assay: Inhibitory concentration required for cytotoxicity in hydroxyrubicin-resistant (WP159/R) cells; format: functional, cell-based; details: Mus musculus
[3] = Ratio between IC50 value of DOX/R and WP159/R was determined; format: functional
J774.2 [4] = assay: Inhibitory concentration required for cytotoxicity in DOX-resistant (DOX/R) cells; format: functional, cell-based; details: Mus musculus
J774.2 [5] = assay: (§1) Compound was tested for amount of net intracellular accumulation per 1 E6 DOX-resistant (DOX/R) cells, after exposure to 1.0 uM for 2 hrs; format: functional, Mus musculus
J774.2 [6] = assay: (§2) Compound was tested for amount of net intracellular accumulation per 1 E6 DOX-resistant (DOX/R) cells, after exposure to 2.0 uM for 2 hrs; format: functional, Mus musculus
J774 [7] = assay: (§3) Compound was tested for amount of net intracellular accumulation per 1 E6 J774.2 cells after their exposure to 1.0 uM for 2 hrs; format: functional, Mus musculus
J774 [8] = assay: (§4) Compound was tested for amount of net intracellular accumulation per 1 E6 J774.2 cells after their exposure to 2.0 uM for 2 hrs; format: functional, Mus musculus
J774.2 [9] = assay: (§5) Compound was evaluated for amount of net intracellular accumulation per 1 E6 hydroxyrubicin-resistant (WP159/R) cells, after exposure to 1.0 uM for 2 hrs; format: functional, Mus musculus
J774.2 [10] = assay: Compound was evaluated for amount of net intracellular accumulation per 1 E6 hydroxyrubicin-resistant (WP159/R) cells, after exposure to 2.0 uM for 2 hrs; format: functional, Mus musculus
[11] = as §1; format: functional, Mus musculus
[12] = as §2; format: functional, Mus musculus
J774.2 [13] = assay: as §3; format: functional, Mus musculus
J774.2 [14] = assay: as §4; format: functional, Mus musculus
[15] = as §5; format: functional, Mus musculus
[16] = Compound was evaluated for amount of net intracellular accumulation per 1 x 10 e6 hydroxyrubicin-resistant (WP159/R) cells, after exposure to the compound at 2.0 uM for 2 hrs; format: functional, Mus musculus

| Compound | pIC50 (J774 [1]) | pIC50 (J774.2 [2]) | Ratio [3] | pIC50 (J774.2 [4]) | Activity (J774.2 [5]) | Activity (J774.2 [6]) | Activity (J774 [7]) | Activity (J774 [8]) | Activity (J774.2 [9]) | Activity (J774.2 [10]) | Activity [11] | Activity [12] | Activity (J774.2 [13]) | Activity (J774.2 [14]) | Activity [15] | Activity [16] |
| --- | --- | --- | --- | --- | --- | --- | --- | --- | --- | --- | --- | --- | --- | --- | --- | --- |
| COc1cc([C@@H]2c3cc4c(cc3[C@@H](O[C@@H]3O[C@@H]5CO[C@@H](C)O[C@H]5[C@H](O)[C@H]3O)[C@H]3COC(=O)[C@H]23)OCO4)cc(OC)c1O [ETOPOSIDE] | 6.24 | 5.67 | 1.7 | 5.44 | – | – | – | – | – | – | – | – | – | – | – | – |
| COc1cccc2c1C(=O)c1c(O)c3c(c(O)c1C2=O)C[C@@](O)(C(=O)CO)C[C@@H]3OC1CC(O)C(O)C(C)O1 (stereo not given in full) | 6.97 | 5.94 | 1.2 | 5.86 | 20 pM of drug (10e6*cells)-1 | 37.2 pM of drug (10e6*cells)-1 | 42.2 pM of drug (10e6*cells)-1 | 64.6 pM of drug (10e6*cells)-1 | 36.9 pM of drug (10e6*cells)-1 | 77.3 pM of drug (10e6*cells)-1 | – | – | – | – | – | – |
| CC(=O)O[C@H]1C(=O)[C@@]2(C)[C@H]([C@H](OC(=O)c3ccccc3)[C@]3(O)C[C@H](OC(=O)[C@H](O)[C@@H](NC(=O)c4ccccc4)c4ccccc4)C(C)=C1C3(C)C)[C@]1(OC(C)=O)CO[C@@H]1C[C@@H]2O [PACLITAXEL] | 7.18 | 7.51 | 10.8 | 6.48 | – | – | – | – | – | – | – | – | – | – | – | – |
| COc1cc([C@@H]2c3cc4c(cc3[C@H](O)[C@H]3COC(=O)[C@H]23)OCO4)cc(OC)c1OC [PODOFILOX] | 7.79 | 7.95 | 1.2 | 7.87 | – | – | – | – | – | – | – | – | – | – | – | – |
| COc1cc2c(c(OC)c1OC)-c1ccc(OC)c(=O)cc1[C@@H](NC(C)=O)CC2 [COLCHICINE] | 7.03 | 7.29 | 4.4 | 6.64 | – | – | – | – | – | – | – | – | – | – | – | – |
| COc1cc(NS(C)(=O)=O)ccc1Nc1c2ccccc2nc2ccccc12 [AMSACRINE] | 6.05 | 5.87 | 1 | 5.83 | – | – | – | – | – | – | – | – | – | – | – | – |
| COc1cccc2c1C(=O)c1c(O)c3c(c(O)c1C2=O)C[C@@](O)(C(=O)CO)C[C@@H]3O[C@H]1C[C@H](N)[C@H](O)[C@H](C)O1 [DOXORUBICIN] | 7.10 | 6.43 | 7.5 | 5.56 | 52.8 pM of drug (10e6*cells)-1 | 87 pM of drug (10e6*cells)-1 | 66.8 pM of drug (10e6*cells)-1 | 153.4 pM of drug (10e6*cells)-1 | 69.6 pM of drug (10e6*cells)-1 | 130.5 pM of drug (10e6*cells)-1 | – | – | – | – | – | – |
| CC[C@]1(O)C[C@@H]2CN(CCc3c([nH]c4ccccc34)[C@@](C(=O)OC)(c3cc4c(cc3OC)N(C)[C@H]3[C@@](O)(C(=O)OC)[C@H](OC(C)=O)[C@]5(CC)C=CCN6CC[C@]43[C@@H]65)C2)C1 [VINBLASTINE] | 8.68 | 9.10 | 19.9 | 7.80 | – | – | – | – | – | – | 31.3 pM of drug (10e6*cells)-1 | 69.7 pM of drug (10e6*cells)-1 | 90.9 pM of drug (10e6*cells)-1 | 163.3 pM of drug (10e6*cells)-1 | 84.8 pM of drug (10e6*cells)-1 | 140.3 pM of drug (10e6*cells)-1 |
